Laboratory results: ChEMBL document CHEMBL3085661, “Fragment-based approach to the design of 5-chlorouracil-linked-pyrazolo[1,5-a][1,3,5]triazines as thymidine phosphorylase inhibitors” (Eur J Med Chem, 2013)
Counter-ions that a name gives are not always drawn.

What was measured:
[1] = target: T1, Thymidine phosphorylase (Escherichia coli K-12, UniProt P07650); experiment: Inhibition of Escherichia coli recombinant thymidine phosphorylase using thymidine as substrate after 4 to 20 mins by UV spectrophotometry
T1 sequence (P07650 whole entry): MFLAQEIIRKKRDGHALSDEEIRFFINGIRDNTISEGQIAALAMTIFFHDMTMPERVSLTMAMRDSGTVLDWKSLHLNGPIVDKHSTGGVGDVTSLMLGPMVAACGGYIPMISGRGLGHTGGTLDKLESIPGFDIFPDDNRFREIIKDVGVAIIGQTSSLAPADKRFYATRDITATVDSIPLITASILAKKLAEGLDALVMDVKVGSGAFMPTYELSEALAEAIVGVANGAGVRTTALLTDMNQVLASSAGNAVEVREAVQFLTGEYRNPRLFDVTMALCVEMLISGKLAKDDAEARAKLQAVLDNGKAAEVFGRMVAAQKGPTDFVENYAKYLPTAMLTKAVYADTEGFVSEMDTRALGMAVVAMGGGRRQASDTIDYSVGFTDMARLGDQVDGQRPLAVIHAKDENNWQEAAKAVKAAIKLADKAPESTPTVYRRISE

[2] = Cytotoxicity against human MDA-MB-231 cells assessed as cell viability at 100 uM by MTT assay relative to control; format: cell-based; conditions: read-out: Activity
[3] = target: T1, Thymidine phosphorylase; experiment: Mixed-type inhibition of Escherichia coli recombinant thymidine phosphorylase using thymidine as substrate by Lineweaver-Burk plot analysis
[4] = target: T1, Thymidine phosphorylase; experiment: Noncompetitive inhibition of GST-tagged Escherichia coli recombinant thymidine phosphorylase expressed in Escherichia coli using thymidine as substrate after 20 to 60 mins by HPLC analysis

Structure (SMILES) | IC50 [1] [µM] | other results
CC(C)(C)c1ccc(-c2cnn3c(=O)[nH]c(SCc4[nH]c(=O)[nH]c(=O)c4Cl)nc23)cc1 | 1.8 | 
COc1ccc(-c2cnn3c(=O)[nH]c(SCc4[nH]c(=O)[nH]c(=O)c4Cl)nc23)cc1 | 21.3 | 
CCOc1ccc(-c2cnn3c(=O)[nH]c(SCc4[nH]c(=O)[nH]c(=O)c4Cl)nc23)cc1 | 12 | 
O=c1[nH]c(CSc2nc3c(-c4ccc(I)cc4)cnn3c(=O)[nH]2)c(Cl)c(=O)[nH]1 | 0.61 | 
O=c1[nH]c(CSc2nc3c(-c4ccc(S(F)(F)(F)(F)F)cc4)cnn3c(=O)[nH]2)c(Cl)c(=O)[nH]1 | 0.36 | viability at 100 µM [2]: 67%; Ki [3]: 0.44 µM
O=c1[nH]c(CSc2nc3cc(-c4ccc(C(F)(F)F)cc4)nn3c(=O)[nH]2)c(Cl)c(=O)[nH]1 | 2.1 | 
Cc1ccc(-c2cc3nc(SCc4[nH]c(=O)[nH]c(=O)c4Cl)[nH]c(=O)n3n2)cc1 | 9.8 | 
CC(C)(C)c1ccc(-c2cc3nc(SCc4[nH]c(=O)[nH]c(=O)c4Cl)[nH]c(=O)n3n2)cc1 | 1.5 | 
COc1ccc(-c2cc3nc(SCc4[nH]c(=O)[nH]c(=O)c4Cl)[nH]c(=O)n3n2)cc1 | 11.8 | 
CCOc1ccc(-c2cc3nc(SCc4[nH]c(=O)[nH]c(=O)c4Cl)[nH]c(=O)n3n2)cc1 | 10 | 
O=c1[nH]c(CSc2nc3cc(-c4ccccc4)nn3c(=O)[nH]2)c(Cl)c(=O)[nH]1 | 13 | 
Cc1cnn2c(=O)[nH]c(SCc3[nH]c(=O)[nH]c(=O)c3Cl)nc12 | 35.3 | 
O=c1[nH]c(CSc2nc3c(Cl)cnn3c(=O)[nH]2)c(Cl)c(=O)[nH]1 | 49.8 | 
O=c1[nH]c(CSc2nc3c(Br)cnn3c(=O)[nH]2)c(Cl)c(=O)[nH]1 | 40 | 
O=c1[nH]c(CSc2nc3c(I)cnn3c(=O)[nH]2)c(Cl)c(=O)[nH]1 | 30.8 | 
N#Cc1cnn2c(=O)[nH]c(SCc3[nH]c(=O)[nH]c(=O)c3Cl)nc12 | 38.8 | 
CCOC(=O)c1cnn2c(=O)[nH]c(SCc3[nH]c(=O)[nH]c(=O)c3Cl)nc12 | 47.2 | 
O=c1[nH]c(CSc2nc3c(-c4ccccc4)cnn3c(=O)[nH]2)c(Cl)c(=O)[nH]1 | 9.7 | 

Structure (SMILES) | IC50 [1] [µM] | other results
O=c1[nH]c(CSc2nc3c(-c4ccc(F)cc4)cnn3c(=O)[nH]2)c(Cl)c(=O)[nH]1 | 8 | 
O=c1[nH]c(CSc2nc3c(-c4ccc(Cl)cc4)cnn3c(=O)[nH]2)c(Cl)c(=O)[nH]1 | 2.8 | 
O=c1[nH]c(CSc2nc3c(-c4ccc(Br)cc4)cnn3c(=O)[nH]2)c(Cl)c(=O)[nH]1 | 1.2 | 
O=c1[nH]c(CSc2nc3c(-c4ccc(C(F)(F)F)cc4)cnn3c(=O)[nH]2)c(Cl)c(=O)[nH]1 | 1.3 | 
Cc1ccc(-c2cnn3c(=O)[nH]c(SCc4[nH]c(=O)[nH]c(=O)c4Cl)nc23)cc1 | 7.3 | 
CCOc1ccc(-c2cc3[nH]c(=S)[nH]c(=O)n3n2)cc1 | 6.1 | 
N#Cc1cnn2c(=O)[nH]c(=S)[nH]c12 | > 100 | 
CCOC(=O)c1cnn2c(=O)[nH]c(=S)[nH]c12 | > 100 | 
O=c1[nH]c(CSc2nc3ccnn3c(=O)[nH]2)c(Cl)c(=O)[nH]1 | 67.8 | 
Cc1cc2nc(SCc3[nH]c(=O)[nH]c(=O)c3Cl)[nH]c(=O)n2n1 | 55.5 | 
CC(C)(C)c1cc2nc(SCc3[nH]c(=O)[nH]c(=O)c3Cl)[nH]c(=O)n2n1 | 51.2 | 
O=c1[nH]c(CSc2nc3cc(C(F)(F)F)nn3c(=O)[nH]2)c(Cl)c(=O)[nH]1 | 31 | 
O=c1[nH]c(CSc2nc3cc(-c4ccc(F)cc4)nn3c(=O)[nH]2)c(Cl)c(=O)[nH]1 | 22.6 | 
O=c1[nH]c(CSc2nc3cc(-c4ccc(Cl)cc4)nn3c(=O)[nH]2)c(Cl)c(=O)[nH]1 | 10.3 | 
O=c1[nH]c(CSc2nc3cc(-c4ccc(Br)cc4)nn3c(=O)[nH]2)c(Cl)c(=O)[nH]1 | 6.2 | 
Oc1ncnc2c1ncn2[C@@H]1O[C@H](COC(c2ccccc2)(c2ccccc2)c2ccccc2)[C@@H](O)[C@H]1O |  | IC50 [4]: 44 µM
N=C1CCCN1Cc1[nH]c(=O)[nH]c(=O)c1Cl [TIPIRACIL HYDROCHLORIDE] | 0.0027 | 
